{
  "source": "patent US10906909B2",
  "about": "“Treatment of cognitive and mood symptoms in neurodegenerative and neuropsychiatric disorders with ALPHA5-containing GABAA receptor agonists” (UWM Research Foundation, Inc., priority 2016, dated 2021)",
  "key": {"[1]": {"tested_on": "mice subjected to chronic restraint stress (CRS)", "assay": "Y-maze alternation task, chronic restraint stress (CRS) mice", "type": "in vivo, mouse", "procedure": "C57/B16 mice, males and females were ordered from Jackson Laboratories at 8 weeks old and were kept in normal housing conditions (12 h light ON cycle starting at 7 am/water and food ad libitum) for one week. During this week, animals were single housed and handled to reduce the anxiety-like response toward the experimenter. To induce a working memory deficit, mice were subjected to a chronic restraint stress protocol (CRS). They were placed in a 50 ml Falcon® tube, twice a day, for 1 hour during their diurnal cycle. The time of occurrence of the stress was randomized every day to avoid predictability. CRS was not applied on testing days. Y-maze test occurred 15 hours minimum after the last stressor.\nMice were first habituated to the Y-maze apparatus and distal cues during 2 consecutive days over a 10 min free exploration session (one session per day). The next day, animals performed a training session consisting in seven successive trials separated by a 30 s inter-trial interval (ITI); during this training session, mice were familiarized with the experimental procedure (opening and closing of the doors and confinement into the goal arms). For each trial, mice remained in the start-box for a 30 s ITI. Then, the door was opened and the mouse was allowed to enter freely one of the two goal arms; the chosen arm was closed and the choice was recorded. After a 30 s confinement period into the chosen arm, the mouse was removed and brought back to the start-box for a second trial identical to the first one and this procedure was repeated over the series of trials.\nThe same general procedure used in the training session was implemented 24 h later, except that the ITI was lengthened to 90 s. For this experiment, animals were acutely injected i.p. with vehicle or αPAM, 30 minutes before the beginning of the test. To dissociate memory deficits from an eventual progressive loss of motivation to alternate over the series, an 8th trial was added to the series which was separated from the 7th trial by a shorter ITI (5 s). All animals failing to alternate at the 8th trial were excluded. The mean alternation rate was calculated and was expressed in percentage (number of alternation done by the animal/total number of alternation possible×100)±SEM. The percentage of alternation during the entire task is considered as an index of working memory performance (50% of being a random alternation rate). Factorial ANOVA was applied to the data to reveal differences between groups. If the ANOVA was significant for group effect (p<0.05), Scheffe post-hoc analysis were conducted to identify which groups are different from each other.\nAll drugs were diluted in a vehicle solution containing 85% H2O, 14% propylene glycol (Sigma Aldrich) and 1% Tween 80 (Sigma Aldrich). Working solutions were prepared at a concentration of 10 mg/mL and administered i.p. adjusted to the body weight of each animal. Doses used were either 1, 5, 10 or 20 mg/kg. For all Y maze experiments, animals were acutely injected i.p. with vehicle or αPAM, 30 minutes before the beginning of the test."}, "[2]": {"assay": "Human liver microsome stability assay", "type": "in vitro ADME", "details": "10 μM compound; for half-life at 10 μM: human, liver microsomes, read-out: Half-life (min) (HumanLM); for % left (Human LM), (1 h): cells marked (1 h)", "procedure": "(§1) Human and mouse liver microsomes were obtained fom BD Gentest.\n(§2) Each evaluation included six independent assays carried out three at a time, on two different days\n(§3) 2. For a total volume of Microsomal Assay Mixture (MAM) 390 μL, sufficient for seven time points, combine the following\n(§4) 3. Sonicate MAM for 5 min and meanwhile thaw microsomes (20 mg/mL) (BD Gentest, Cat #452156) on ice.\n(§5) 4. Aliquot 100 μL of ice cold ISTD into 7 separate 1.5 mL conical vials and label them the time points for 0, 10, 20, 40, 60, 90, and 120 min.\n(§6) 5. Arrange the timer. Microsomes (Final concentration of 0.5 mg/mL) should be added to all time points except the zero time point.\n(§7) 6. Add 50 μL of the MAM solution to the conical vial labelled as zero time point. Place the remaining MAM solution in the incubator (37° C.) for 5 min and initiate the reaction with addition of microsomes (8.8 μL) and record the time.\n(§8) 7. At the end of each time interval remove 50 μL and add 100 μL to ISTD in conical vial, sonicate for 10 sec and spin down at 10,000 rpm for 5 minutes.\n(§9) 8. Take 100 μL of supernatant and transfer to Spin-X HPLC filter tubes (Corning Incorporated, Cat #8169) and centrifuge at 13,000 rpm for 5 minutes and take 5 μL from this solution and dilute in 495 μL of LCMS grade methanol (Fischer scientific, CAS #67-56-1) in an 2 mL glass auto sampler vial (Microsolv, Cat #95025-WCV) 9. The samples are analyzed by LCMS-8040. (Shimadzu)\n(§10) Calculation: From the peak area, calculate the following\n(§11) The compounds are tested for the metabolic stability in the Human and Mouse Liver microsomes at 10 μM concentration."}, "[3]": {"assay": "Mouse liver microsome stability assay", "type": "in vitro ADME", "details": "10 μM compound; for half-life at 10 μM: mouse, liver microsomes, read-out: Half-life (min) (MouseLM); for % left (MouseLM), (1 h): cells marked (1 h)", "procedure": "as §1, §2, §3, §4, §5, §6, §7, §8, §9, §10, §11"}, "HEPG2": {"tested_on": "HEPG2", "assay": "Cytotoxicity assay (CellTiter-Glo), HEPG2", "type": "cell-based, human", "details": "48 hours incubation", "procedure": "Human liver hepatocellular carcinoma (HEPG2) and human embryonic kidney 293 (HEK293) cell lines were purchased (ATCC) and cultured in 75 cm2 flasks (CellStar). Cells were grown in DMEM/High Glucose (Hyclone, #SH3024301) media to which non-essential amino acids (Hyclone, #SH30238.01), 10 mM HEPES (Hyclone, #SH302237.01), 5×106 units of penicillin and streptomycin (Hyclone, #SV30010), and 10% of heat inactivated fetal bovine serum (Gibco, #10082147) were added. Cells were harvested using 0.05% Trypsin (Hyclone, #SH3023601), washed with PBS, and dispensed into sterile white, optical bottom 384-well plates (NUNC, #142762). After three hours, small molecule solutions were transferred with a Tecan Freedom EVO liquid handling system equipped with a 100 nL pin tool (V&P Scientific). The controls (E)-10-(bromotriphenylphosphoranyl)decyl 4-(4-(tert-butyl)phenyl)-4-oxobut-2-enoate (400 μM in DMSO, positive control) and DMSO (negative control). The cells were incubated for 48 hours followed by the addition of CellTiter-Glo™, a luminescence-based cell viability assay (Promega, Madison, Wis.). All luminescence readings were performed on a Tecan Infinite M1000 plate reader. The assay was carried out in quadruplet with three independent runs. The data was normalized to the controls and analyzed by nonlinear regression (GraphPad Prism)."}, "[4]": {"details": "1 mg/kg i.p. 30 min before testing"}, "[5]": {"details": "10 mg/kg i.p. 30 min before testing"}, "[6]": {"details": "5 mg/kg i.p. 30 min before testing"}},
  "note": "“And” between values parts separate entries of the source, which are not always exact repeats. Equal entries are not always repeated. “Also recorded” adds a separate entry of the source.",
  "data": [
    {"smiles": "C#Cc1ccc2c(c1)C(c1ccccc1F)=N[C@@H](C)c1c(C(=O)N(C)C)ncn1-2", "note": "[GL-I-54, (S)-8-ethynyl-6-(2-fluorophenyl)-N,N,4-trimethyl-4H-benzo[f]imidazo[1,5-a][1,4]diazepine-3-carboxamide]", "values": [
      {"measurement": "effect on CRS-induced working memory deficit (percent alternation rate, Y-maze)", "setting": "[1]; [4]", "value": "decreased performance"},
      {"measurement": "effect on CRS-induced working memory deficit (percent alternation rate, Y-maze)", "setting": "[1]; [5]", "value": "significant reversal of CRS-induced impairment in working memory; also recorded: significant pro-cognitive effect"},
      {"measurement": "% left after 2 hr. (Human LM)", "setting": "[2]; 2 hr", "value": "36.4 ± 2.0", "unit": "%"},
      {"measurement": "half-life at 10 μM", "setting": "[2]", "value": "100 ± 4.5", "unit": "min"},
      {"measurement": "% left after 2 hr. (MouseLM)", "setting": "[3]", "value": "15.0% and 15.0 ± 3.0%"},
      {"measurement": "half-life at 10 μM", "setting": "[3]", "value": "53 ± 10", "unit": "min"},
      {"measurement": "HEPG2 LD50", "setting": "HEPG2", "value": ">400", "unit": "µM"}
    ]},
    {"smiles": "C#Cc1ccc2c(c1)C(c1ccccc1F)=N[C@H](C)c1c(C(=O)NCC)ncn1-2", "note": "[GL-II-74, (R)—N-ethyl-8-ethynyl-6-(2-fluorophenyl)-4-methyl-4H-benzo[f]imidazo[1,5-a][1,4]diazepine-3-carboxamide]", "values": [
      {"measurement": "Alternation rate (%)", "setting": "[1]; Dose 1-5-10 mg/kg", "value": "<58.3", "unit": "%"},
      {"measurement": "half-life at 10 μM", "setting": "[2]", "value": "751 ± 214", "unit": "min"},
      {"measurement": "% left (MouseLM), (1 h)", "setting": "[3]", "value": "56.5 ± 0.3", "unit": "%"},
      {"measurement": "half-life at 10 μM", "setting": "[3]", "value": "69 ± 3", "unit": "min"}
    ]},
    {"smiles": "C#Cc1ccc2c(c1)C(c1ccccc1F)=N[C@H](C)c1c(C(=O)NC3CC3)ncn1-2", "note": "[GL-II-75, (R)—N-cyclopropyl-8-ethynyl-6-(2-fluorophenyl)-4-methyl-4H-benzo[f]imidazo[1,5-a][1,4]diazepine-3-carboxamide]", "values": [
      {"measurement": "effect on CRS-induced working memory deficit (percent alternation rate, Y-maze)", "setting": "[1]; [4]", "value": "significant reversal of CRS-induced impairment in working memory; also recorded: significant pro-cognitive effect"},
      {"measurement": "effect on CRS-induced working memory deficit (percent alternation rate, Y-maze)", "setting": "[1]; [6]", "value": "significant reversal of CRS-induced impairment in working memory; also recorded: significant pro-cognitive effect"},
      {"measurement": "effect on CRS-induced working memory deficit (percent alternation rate, Y-maze)", "setting": "[1]; [5]", "value": "significant reversal of CRS-induced impairment in working memory; also recorded: significant pro-cognitive effect"},
      {"measurement": "half-life at 10 μM", "setting": "[2]", "value": "712 ± 165", "unit": "min"},
      {"measurement": "% left (MouseLM), (1 h)", "setting": "[3]", "value": "83.5 ± 0.2", "unit": "%"},
      {"measurement": "half-life at 10 μM", "setting": "[3]", "value": "239 ± 22", "unit": "min"}
    ]},
    {"smiles": "C#Cc1ccc2c(c1)C(c1ccccc1F)=N[C@H](C)c1c(C(=O)N(C)C)ncn1-2", "note": "[GL-II-73, (R)-8-ethynyl-6-(2-fluorophenyl)-N,N,4-trimethyl-4H-benzo[f]imidazo[1,5-a][1,4]diazepine-3-carboxam]", "values": [
      {"measurement": "effect on CRS-induced working memory deficit (percent alternation rate, Y-maze)", "setting": "[1]; [6]", "value": "pro-cognitive effect"},
      {"measurement": "effect on CRS-induced working memory deficit (percent alternation rate, Y-maze)", "setting": "[1]; [5]", "value": "pro-cognitive effect"},
      {"measurement": "effect on CRS-induced working memory deficit (percent alternation rate, Y-maze)", "setting": "[1]; 20 mg/kg i.p. 30 min before testing", "value": "pro-cognitive effect"},
      {"measurement": "Half-life (min) (HumanLM)", "setting": "[2]", "value": "755 ± 243", "unit": "min"},
      {"measurement": "Half-life (min) (MouseLM)", "setting": "[3]", "value": "309 ± 36", "unit": "min"},
      {"measurement": "% left (MouseLM), (1 h)", "setting": "[3]", "value": "81.6% and 86.6 ± 0.2%"},
      {"measurement": "HEPG2 LD50", "setting": "HEPG2", "value": ">400", "unit": "µM"}
    ]},
    {"smiles": "C#Cc1ccc2c(c1)C(c1ccccc1F)=N[C@H](C)c1c(C(=O)NC)ncn1-2", "note": "[MP-III-022]", "values": [
      {"measurement": "Alternation rate (%)", "setting": "[1]; Dose 5 mg/kg", "value": 45.5, "unit": "%"},
      {"measurement": "% left (Human LM), (1 h)", "setting": "[2]", "value": "69.4 ± 0.4", "unit": "%"},
      {"measurement": "half-life at 10 μM", "setting": "[2]", "value": "141 ± 18", "unit": "min"},
      {"measurement": "% left after 2 hr. (MouseLM)", "setting": "[3]", "value": "76.6% and 76.6 ± 0.2%"},
      {"measurement": "half-life at 10 μM", "setting": "[3]", "value": "164 ± 10", "unit": "min"},
      {"measurement": "HEPG2 LD50", "setting": "HEPG2", "value": ">200", "unit": "µM"}
    ]},
    {"smiles": "C#Cc1ccc2c(c1)C(c1ccccc1F)=N[C@H](C)c1c(C(=O)N3CCCC3)ncn1-2", "note": "[GL-II-76, (R)-(8-ethynyl-6-(2-fluorophenyl)-4-methyl-4H-benzo[f]imidazo[1,5-a][1,4]diazepin-3-yl)(pyrrolidin-1-yl)methanone]", "values": [
      {"measurement": "Alternation rate (%)", "setting": "[1]; Dose 10 mg/kg", "value": 47.2, "unit": "%"},
      {"measurement": "% left (Human LM), (1 h)", "setting": "[2]", "value": "75 ± 0.1", "unit": "%"},
      {"measurement": "half-life at 10 μM", "setting": "[2]", "value": "154 ± 5", "unit": "min"},
      {"measurement": "% left (MouseLM), (1 h)", "setting": "[3]", "value": "18.6 ± 0.3", "unit": "%"},
      {"measurement": "half-life at 10 μM", "setting": "[3]", "value": "23 ± 1", "unit": "min"},
      {"measurement": "HEPG2 LD50", "setting": "HEPG2", "value": ">400", "unit": "µM"}
    ]}
  ]
}
